Measurements: ChEMBL document CHEMBL1201862, “PubChem BioAssay data set” (2004)
Activity calls are given as the source filed them.

Columns and labels:
[1] = molecular target: T1, DNA repair and recombination protein RAD54-like (Homo sapiens, UniProt Q92698); test: inhibitors of human RAD54 branch migration, confirmation, biochemical, fluorescence, cherry-picked samples, dose series (AID 651657); assay type: functional
T1 sequence (Q92698 whole entry): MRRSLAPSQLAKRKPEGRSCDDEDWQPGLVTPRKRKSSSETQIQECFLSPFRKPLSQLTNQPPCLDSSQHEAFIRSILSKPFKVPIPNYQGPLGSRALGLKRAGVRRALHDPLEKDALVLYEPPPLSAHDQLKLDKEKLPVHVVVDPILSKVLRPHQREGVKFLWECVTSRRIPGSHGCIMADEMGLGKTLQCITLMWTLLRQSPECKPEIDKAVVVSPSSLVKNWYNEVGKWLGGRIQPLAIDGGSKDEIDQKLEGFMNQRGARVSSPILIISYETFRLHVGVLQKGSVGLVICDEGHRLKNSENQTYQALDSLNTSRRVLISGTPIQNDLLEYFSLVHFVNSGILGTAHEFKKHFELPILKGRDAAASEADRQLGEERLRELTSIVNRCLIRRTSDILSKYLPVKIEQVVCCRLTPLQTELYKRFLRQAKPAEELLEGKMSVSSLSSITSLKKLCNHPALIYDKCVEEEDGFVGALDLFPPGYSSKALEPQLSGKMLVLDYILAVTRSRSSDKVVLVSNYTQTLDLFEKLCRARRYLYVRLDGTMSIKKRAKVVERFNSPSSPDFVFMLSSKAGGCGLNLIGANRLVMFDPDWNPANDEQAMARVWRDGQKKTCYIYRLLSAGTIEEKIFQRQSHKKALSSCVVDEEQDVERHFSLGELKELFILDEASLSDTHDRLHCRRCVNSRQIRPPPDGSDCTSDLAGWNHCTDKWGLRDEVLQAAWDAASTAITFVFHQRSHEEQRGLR

[2] = molecular target: T2, Short transient receptor potential channel 4 (Mus musculus, UniProt Q9QUQ5); test: mouse TRPC4 channel inhibitors, dose response, cell-based, HEK293 TRPC4/mu-opioid, Fluo-4 calcium (AID 434942); assay type: functional;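 further: potency of inhibitors blocking the TRPC4 calcium response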
T2 sequence (Q9QUQ5 whole entry): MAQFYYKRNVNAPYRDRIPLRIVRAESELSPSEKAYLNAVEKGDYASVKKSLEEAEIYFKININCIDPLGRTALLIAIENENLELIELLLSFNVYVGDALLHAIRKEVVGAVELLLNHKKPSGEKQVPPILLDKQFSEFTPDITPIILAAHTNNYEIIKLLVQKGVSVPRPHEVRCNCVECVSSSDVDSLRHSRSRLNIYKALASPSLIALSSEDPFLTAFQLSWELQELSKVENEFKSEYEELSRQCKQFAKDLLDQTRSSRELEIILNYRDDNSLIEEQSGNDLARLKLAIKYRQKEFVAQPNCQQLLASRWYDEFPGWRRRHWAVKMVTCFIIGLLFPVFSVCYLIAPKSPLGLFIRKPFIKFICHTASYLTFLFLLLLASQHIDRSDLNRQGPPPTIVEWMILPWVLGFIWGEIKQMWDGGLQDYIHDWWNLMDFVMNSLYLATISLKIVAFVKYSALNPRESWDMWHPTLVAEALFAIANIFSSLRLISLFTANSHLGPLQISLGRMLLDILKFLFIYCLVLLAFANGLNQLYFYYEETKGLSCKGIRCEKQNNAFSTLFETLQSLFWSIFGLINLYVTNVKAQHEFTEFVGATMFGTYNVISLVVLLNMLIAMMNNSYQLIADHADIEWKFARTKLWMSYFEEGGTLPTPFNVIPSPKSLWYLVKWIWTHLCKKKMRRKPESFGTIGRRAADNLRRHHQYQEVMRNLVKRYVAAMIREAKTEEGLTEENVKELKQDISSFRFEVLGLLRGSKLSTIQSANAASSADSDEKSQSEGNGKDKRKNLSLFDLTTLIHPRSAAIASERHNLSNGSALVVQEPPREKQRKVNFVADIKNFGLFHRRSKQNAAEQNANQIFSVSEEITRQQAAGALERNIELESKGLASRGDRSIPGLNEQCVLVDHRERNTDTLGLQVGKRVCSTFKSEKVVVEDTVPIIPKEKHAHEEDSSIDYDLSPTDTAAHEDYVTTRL

[3] = molecular target: T3, DNA repair protein RAD52 homolog (Homo sapiens, UniProt P43351); assay type: functional, biochemical
T3 sequence (P43351 whole entry): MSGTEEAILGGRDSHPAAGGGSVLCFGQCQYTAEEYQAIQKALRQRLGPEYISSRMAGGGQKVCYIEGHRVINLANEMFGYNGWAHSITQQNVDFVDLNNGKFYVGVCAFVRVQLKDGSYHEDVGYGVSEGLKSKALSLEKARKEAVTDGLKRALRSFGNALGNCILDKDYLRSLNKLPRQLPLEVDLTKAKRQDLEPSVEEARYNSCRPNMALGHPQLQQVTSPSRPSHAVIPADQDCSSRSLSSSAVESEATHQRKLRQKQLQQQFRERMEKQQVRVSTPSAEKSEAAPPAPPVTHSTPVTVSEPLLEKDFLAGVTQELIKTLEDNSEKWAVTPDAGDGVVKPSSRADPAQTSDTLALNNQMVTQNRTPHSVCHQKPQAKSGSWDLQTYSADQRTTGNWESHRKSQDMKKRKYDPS

[4] = intracellular Trypanosoma cruzi inhibitors in host cells – cell-based, plate reader, cherry-pick samples, set 3, dose response (AID 651818); assay type: functional;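 further: compounds incubated with infected cells for about four days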
[5] = cytotoxicity in HEK-293T cells, dose response, cytotoxicity control for TCR NF-kB inhibitor project, luminescence, T-cell screen hits (AID 489026); assay type: functional, cell-based;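 further: cells exposed to compound about 14 hours before the viability readout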
[6] = HEK293T cytotoxicity, dose response, cytotoxicity control for miR-122 modulator project, cell-based, inhibitor set, cherry-pick, set 2 (AID 720697); assay type: functional
[7] = test system: BJ; test: cells; assay type: functional, cell-based; conditions: Homo sapiens
[8] = inhibitors of intracellular T. cruzi replication, confirmation, NIH3T3 host cells, beta-gal luminescence (AID 2044); assay type: functional, cell-based;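 further: intracellular parasites grown in NIH/3T3 mouse fibroblasts as host cells; luminescent beta-galactosidase reporter signal from transgenic T. cruzi replicating inside host cells; inhibitors lower the luminescence signal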
[9] = inhibitors of firefly luciferase expression or activity, dose response, H4 neuroglioma cells, luminescence (AID 1990); assay type: functional, cell-based
[10] = test system: BJ; test: cytotoxicity toward BJ-TERT fibroblasts, dose response, cell-based, RAS-independent, luminescence (AID 1933); assay type: functional; conditions: Homo sapiens
[11] = molecular target: Nonstructural protein 1 (Influenza A virus, UniProt Q194T2); assay type: functional, Influenza A virus (A/California/07/2009(H1N1))
Sequence of Nonstructural protein 1 (Q194T2 whole entry): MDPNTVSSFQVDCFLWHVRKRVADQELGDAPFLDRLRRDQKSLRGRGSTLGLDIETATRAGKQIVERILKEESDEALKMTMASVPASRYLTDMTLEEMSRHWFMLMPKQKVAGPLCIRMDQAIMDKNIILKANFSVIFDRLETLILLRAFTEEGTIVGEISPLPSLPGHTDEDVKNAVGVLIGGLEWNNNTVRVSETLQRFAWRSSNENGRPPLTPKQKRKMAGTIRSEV

[12] = Luminescence Cell-Based Dose Response HTS to Identify Inhibitors of 5'UTR Stem-Loop Driven Prion Protein mRNA Translation in H4 Neuroglioblastoma Cells. [Related pubchem assays: 1827 (Project Summary), 1813 (Primary HTS)]; assay type: functional
[13] = test system: INS1; test: beta cell apoptosis inhibitors, cytokine rescue, dose response, luminescence, retest (AID 449756); assay type: functional, cell-based; conditions: Rattus norvegicus, INS1;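 further: cell death triggered by IL-1 beta plus TNF-alpha plus IFN-gamma mixture; protective hits raise ATP signal compared with cytokine alone wells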
[14] = cytotoxicity toward DRD oncogenic fibroblasts, dose response, cell-based, non-viral oncogenic, luminescence (AID 1934); assay type: functional; conditions: Homo sapiens
[15] = inhibitors of SNCA 5'UTR-driven reporter translation, confirmation, H4 neuroglioma cells, luminescence (AID 1988); assay type: functional, cell-based
[16] = test system: BJ; test: cytotoxicity toward BJ-TERT-LT-ST fibroblasts, dose response, cell-based, RAS-independent, luminescence (AID 1935); assay type: functional; conditions: Homo sapiens;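 further: BJ fibroblasts immortalized with TERT plus LT and ST oncogenes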
[17] = cytotoxicity toward NIH3T3 fibroblasts, dose response, counter-screen, cell-based, ATP luminescence, mouse fibroblasts (AID 2010); assay type: functional;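 further: cells exposed to compound for about 90 hours before reading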

CCN1CCN(c2nc(N)c([N+](=O)[O-])c(Nc3cccc(C)c3)n2)CC1
AC50 [1]: 12.4 µM (active)

CCOC(=O)C1(Cc2ccccc2C)CCCN(Cc2ccc(NC(C)=O)cc2)C1 (configuration not stated)
EC50 [2]: 3.35 µM (active)

COc1ccc(OC)c(CN2CCCC(C(=O)c3sccc3C)C2)c1 (configuration not stated)
EC50 [2]: 1.88 µM (active)

COc1cccc(-c2cc3nc(NCCCN(C)C)n(C)c(=O)c3s2)c1
AC50 [3]: 7.04 µM (active)
AC50 [1]: 30.6 µM (active)

C[C@@H]1CCCCO[C@H](CN(C)C(=O)Nc2ccc(C(F)(F)F)cc2)[C@@H](C)CN([C@H](C)CO)C(=O)c2cc(NC(=O)Nc3ccc(F)cc3)ccc2O1
AC50 [4]: 1.35 µM (active)

C[C@@H]1CCCCO[C@H](CN(C)Cc2ccc(C(F)(F)F)cc2)[C@@H](C)CN([C@H](C)CO)C(=O)c2cc(NS(=O)(=O)c3ccc(Cl)cc3)ccc2O1
AC50 [4]: 3.33 µM (active)

Cc1cc(C(=O)Nc2cccc3c2O[C@H](CN(C)Cc2ccc(C(=O)Nc4ccccc4N)cc2)[C@H](C)CN([C@H](C)CO)C3=O)n(C)n1
AC50 [4]: 3.15 µM (active)

C[C@H]1CN([C@@H](C)CO)C(=O)c2cc(NC(=O)Nc3ccccc3)ccc2O[C@H]1CN(C)Cc1ccc(C(=O)Nc2ccccc2N)cc1
AC50 [4]: 4.89 µM (active)

C[C@H](CO)N1C[C@H](C)[C@H](CN(C)C(=O)Nc2cccc3ccccc23)Oc2c(NC(=O)Nc3ccc4c(c3)OCO4)cccc2C1=O
AC50 [4]: 11.9 µM (active)

C[C@@H]1CCCCO[C@H](CN(C)Cc2ccc(Cl)c(Cl)c2)[C@@H](C)CN([C@H](C)CO)C(=O)c2cc(NC(=O)Nc3ccccc3)ccc2O1
AC50 [4]: 3.65 µM (active)

CCOC(=O)c1[nH]c(C=O)c(C(=O)OCC)c1C
IC50 [5]: > 80 µM (inactive)

Cc1cc(C(=O)Nc2ccc3c(c2)C(=O)N(C)[C@H]2CC[C@H](CC(=O)N[C@@H](C)c4ccccc4)O[C@H]2CO3)no1
AC50 [6]: 0.478 µM (active)

C/C=C/c1ccc([C@H]2[C@@H](CO)N[C@@H]2CN(C(=O)c2ccccc2F)C(C)C)cc1
AC50 [6]: 2.45 µM (active)

CN1C[C@H]2[C@@H](c3ccccc31)[C@@H](CO)N2C(=O)C1CCOCC1
AC50 [6]: < 0.195 µM (active)

C/C(=N\NC(=O)c1ccccc1Cl)c1ccccn1
EC50 [7]: 13.5 µM (active)
EC50 [8]: 1.5 µM (active)
EC50 [9]: 9.67 µM (active)
EC50 [10]: 14.8 µM (active)
IC50 [11]: 11.1 µM (active)
EC50 [12]: 6.44 µM (active)
AC50 [13]: 1.4 µM (active)
EC50 [14]: 17.5 µM (active)
EC50 [15]: 5.67 µM (active)
EC50 [16]: 12.2 µM (active)
EC50 [17]: 5.56 µM (active)

COc1cc(OC)c(/C=C2\C(=O)Nc3ccccc32)c(OC)c1
IC50 [5]: 69.6 µM (inactive)
